Measurements from patent publication US8697643B2, “Method for controllably releasing a drug conjugate within subcutaneous tissue in response to the local concentration of an indicator” (priority 2005, dated 2014).

Experiments:
[1] = system: fasted normal rats (Male Sprague-Dawley); test: blood glucose depression and serum insulin profiles after subcutaneous injection; assay type: in vivo, rat
Procedure: Subcutaneous injections of insulin-polymer conjugates or insulin controls are administered at a dose between 1 and 10 equivalent U insulin/kg body weight behind the neck of fasted normal […] rats (Male Sprague-Dawley, 200-250 g, n=2-4). Blood samples are collected via tail vein bleeding at −15 and 0 minutes, and at 15, 30, 45, 60, 90, 120, 180, 240, 300 and 360 minutes after injection. Blood glucose values are measured using commercially available test strips (Precision Xtra, Abbott Laboratories, Abbott Park, Ill.). The remaining blood is centrifuged to obtain serum and stored in a freezer until measured for serum insulin levels. Serum insulin is measured using an ELISA kit (ALPCO Diagnostics, Windham, N.H.). Pharmacodynamic (PD) parameters such as time to reach minimum blood glucose concentration (Tnadir) and duration over which the blood glucose level remains below 70% of initial value (T70% BGL), are determined according to published methods for subcutaneous delivery. Pharmacokinetic (PK) parameters such as time to reach maximum serum insulin concentration (Tmax), mean insulin residence time (MRT), and mean insulin absorption time (MAT), are determined according to published methods for subcutaneous delivery using commercially available ELISA assays (ALPCO Diagnostics, Windham, N.H.). The blood glucose depression curve and corresponding serum insulin profile for each formulation may then be compared to those obtained for an insulin control to determine any differences in the timing and extent of the insulin action.
The in vivo digestion behavior of the insulin-glycogen conjugate was assessed via subcutaneous injection (alone without a glucose-binding molecule such as Con A) into normal male SD rats.
Subcutaneous injections of insulin-dextran were administered using 0.25 ml of a sterilized 1×PBS solution (0.88 equivalent mg insulin/[…]) behind the neck of two fasted normal rat groups (Male Sprague-Dawley, 200-250 g, n=4). Measurements of glucose and insulin values from tail vein blood samples were performed at −15 and 0 minutes, and at 15, 30, 45, 60, 90, 120, 180, 240, 300 and 360 minutes after injection.

human salivary amylase = biological target: T1, human salivary amylase (Homo sapiens, UniProt P0DUB6); test: in vitro amylase digestion assay of insulin-glycogen (SDS-PAGE); assay type: in vitro ADME; details: SDS-PAGE after incubation with amylase
T1 construct: from tissue; host or cells: human saliva (whole, diluted in 1x PBS)
T1 sequence (P0DUB6 16-511): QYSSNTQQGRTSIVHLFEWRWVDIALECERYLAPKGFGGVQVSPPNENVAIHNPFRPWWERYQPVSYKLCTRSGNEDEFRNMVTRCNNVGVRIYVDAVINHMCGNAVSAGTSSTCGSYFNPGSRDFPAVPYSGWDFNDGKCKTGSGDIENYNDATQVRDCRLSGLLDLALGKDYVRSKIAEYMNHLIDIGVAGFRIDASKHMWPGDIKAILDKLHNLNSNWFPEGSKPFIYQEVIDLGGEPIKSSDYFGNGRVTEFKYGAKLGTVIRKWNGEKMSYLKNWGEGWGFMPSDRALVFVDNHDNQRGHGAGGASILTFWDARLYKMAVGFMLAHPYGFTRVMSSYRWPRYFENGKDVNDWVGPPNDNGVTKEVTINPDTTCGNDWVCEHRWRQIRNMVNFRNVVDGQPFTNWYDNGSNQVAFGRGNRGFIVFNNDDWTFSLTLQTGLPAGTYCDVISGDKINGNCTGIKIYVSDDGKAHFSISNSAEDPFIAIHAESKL
Procedure: As previously discussed, once an insulin-glycogen conjugate is released from an inventive glucose-responsive material, it is digested by amylases that breakdown the large molecular weight insulin-glycogen conjugate into low molecular weight conjugates in vivo. […] An in vitro amylase digestion assay was performed to qualify the proposed insulin-glycogen degradation mechanism. […] The saliva sample was serially diluted 1:2 in 1×PBS buffer to 1:512.90 μL aliquots of each of the 1:4, 1:16, 1:64, 1:128, 1:256, and 1:512 dilutions were added to pre-prepared microcentrifuge tubes containing 90 μL of undiluted insulin-glycogen. […] The gels were run in SDS running buffer for 45 minutes to an hour at a constant voltage of 150 V. Under these conditions, the amylase completely digested the insulin-glycogen conjugate into native MW insulin at the 1:16 dilution level as quantified by the relative band density of high MW conjugate to that of native MW insulin.
SDS-PAGE has confirmed that the insulin-glycogen conjugate is essentially free from unconjugated insulin (FIG. 5a). […] Serum was collected from the other catheter as a function of time and analyzed for fluorescence (fmax, Molecular Devices, Sunnyvale, Calif.) to determine glycogen absorption rate and insulin levels (RIA, Joslin Diabetes Center).

non-diabetic felines = test: euglycemic clamp protocol in non-diabetic felines; assay type: in vivo, feline; details: 0.5 U/kg conjugate (FIG. 6)
[2] = system: normal and STZ-diabetic rats; test: disappearance of fluorescently labeled gel components from the injection site; assay type: in vivo, rat; details: gel injected under the skin
Description: The inventive gel of Example 21, has viscosity characteristics that allow easy loading and injection through a standard 27½G insulin syringe obviating the need for invasive surgery. […] This is necessary to avoid unwanted material accumulation after repeated daily dosing. To illustrate this point, gels were synthesized from (i) fluorescently-labeled insulin-glycogen conjugate (FITC-conjugate)/unlabeled Con A and (ii) unlabeled insulin-glycogen conjugate/fluorescently-labeled Con A (FITC-Con A) in the presence of India ink (SpeedBall® Superblack) and injected under the skin of both normal and STZ-diabetic rats on Days 2, 1, and 0 in order to simultaneously observe the injection site post-mortem and monitor the rate of disappearance of each of the components by fluorescence imaging.
Taken together, not only is the insulin-glycogen conjugate removed completely from the injection site, its rate of disappearance is dependent on the glycemic state of the animal (i.e. hyperglycemia leads to more rapid elimination of material from the site).

[3] = s.c. 0.25 ml, fasted normal male SD rats
[4] = FIG. 4b, s.c. 2.5 U of conjugated insulin/kg, male SD rats
[5] = s.c. injection alone, normal male SD rats

“insulin-dextran: human recombinant insulin coupled to dextran (MW=70K) by CNBr; comparative conjugate [reference compound]” was tested, and the “time serum glucose levels remain depressed post injection” value [1, 3] was “at least five”, the “time to reach the glucose nadir (Tnadir)” value [1, 3] was “about 3 h” and the “time to return to within 70% of fasting glucose levels (T70% BGL)” value [1, 3] was “greater than 2.5 hours”.
For “insulin-glycogen conjugate: human recombinant insulin covalently linked to glycogen by CNBr or CDAP coupling; glycogen source differs between examples”, the degradation by amylases (human salivary amylase) was “rapidly degraded by amylases in vitro and in vivo”, the “T70% BGL” value [1, 4] was ~150 min and the “Tnadir (blood glucose)” value [1, 4] was 30 to 45 min. The “time to reach glucose nadir (Tnadir)” value [1, 5] was 30 to 45 min, the “time to return to within 70% of fasting glucose levels (T70% BGL)” value [1, 5] was “less than 180 minutes” and the “speed of insulin action compared with unconjugated insulin” value ([1]; s.c., normal male SD rats) was “acts just as rapidly as unconjugated insulin in vivo”. For the same substance, the “conjugate bioactivity in euglycemic clamp” value (non-diabetic felines) was “confirmed the conjugate bioactivity”, the “elimination from the injection site (fluorescence imaging)” value ([2]; STZ-diabetic rats) was “completely eliminated from the injection site in STZ-diabetic rats both one and two days after injection” and the “elimination from the injection site (fluorescence imaging)” value ([2]; normal rats) was “still remained at the injection site after one day”.
